Test results reported in US7691858B2, “Kinase inhibitors and methods of use thereof” (TargeGen, Inc., priority 2006, dated 2010).

Assays:
Assay in all cases: Kinase panel screen
Abl = target: T1, Abl (Mus musculus, UniProt P00520); type: biochemical; details: Compound I and ATP 10 μM
T1 construct: purchased Upstate USA or Invitrogen (commercial screening service)

MAPKAP-K3 = target: T2, MAPKAP-K3 (Homo sapiens, UniProt Q16644); type: biochemical; details: Compound I and ATP 10 μM
T2 construct: purchased Upstate USA or Invitrogen (commercial screening service)

Akt2 = Akt2 (Homo sapiens, UniProt P31751); type: biochemical; details: Compound I at 1 μM and ATP at the apparent Km
PKCy = target: T3, PKCy (Homo sapiens, UniProt P05129); type: biochemical; details: Compound I and ATP 10 μM
T3 construct: purchased Upstate USA or Invitrogen (commercial screening service)

Akt3 = target: T4, Akt3 (Homo sapiens, UniProt Q9Y243); type: biochemical; details: Compound I at 1 μM and ATP at the apparent Km
T4 construct: purchased Upstate USA or Invitrogen (commercial screening service)

MEK2 = target: T5, MEK2 (Homo sapiens, UniProt P36507); type: biochemical; details: Compound I at 1 μM and ATP at the apparent Km
T5 construct: purchased Upstate USA or Invitrogen (commercial screening service)

ErbB4 = target: T6, ErbB4 (Homo sapiens, UniProt Q15303); type: biochemical; details: Compound I and ATP 10 μM
T6 construct: purchased Upstate USA or Invitrogen (commercial screening service)

ALK = target: T7, ALK (Homo sapiens, UniProt Q9UM73); type: biochemical; details: Compound I and ATP 10 μM
T7 construct: purchased Upstate USA or Invitrogen (contract screening service)

AMPK = type: biochemical, rat; details: Compound I and ATP 10 μM
MKK7b = target: T8, MKK7b (Homo sapiens, UniProt O14733); type: biochemical; details: Compound I and ATP 10 μM
T8 construct: purchased Upstate USA or Invitrogen (contract screening service)

Pyk2 = target: T9, Pyk2 (Homo sapiens, UniProt Q14289); type: biochemical; details: Compound I and ATP 10 μM
T9 construct: purchased Upstate USA or Invitrogen (contract screening service)

FGFR4 = target: T10, FGFR4 (Homo sapiens, UniProt P22455); type: biochemical; details: Compound I and ATP 10 μM
T10 construct: purchased Upstate USA or Invitrogen (contract screening service)

MSK1 = target: T11, MSK1 (Homo sapiens, UniProt O75582); type: biochemical; details: Compound I and ATP 10 μM
T11 construct: purchased Upstate USA or Invitrogen (contract screening service)

Ret = target: T12, Ret (Homo sapiens, UniProt P07949); type: biochemical; details: Compound I and ATP 10 μM
T12 construct: purchased Upstate USA or Invitrogen (contract screening service)

Fgr = target: T13, Fgr (Homo sapiens, UniProt P09769); type: biochemical; details: Compound I and ATP 10 μM
T13 construct: purchased Upstate USA or Invitrogen (contract screening service)

MSK2 = target: T14, MSK2 (Homo sapiens, UniProt O75676); type: biochemical; details: Compound I and ATP 10 μM
T14 construct: purchased Upstate USA or Invitrogen (contract screening service)

Flt3 = target: T15, Flt3 (Homo sapiens, UniProt P36888); type: biochemical; details: Compound I and ATP 10 μM
T15 construct: purchased Upstate USA or Invitrogen (commercial screening service)

BRK = target: T16, BRK (Homo sapiens, UniProt Q13882); type: biochemical; details: Compound I and ATP 10 μM
T16 construct: purchased Upstate USA or Invitrogen (commercial screening service)

Ros = target: T17, Ros (Homo sapiens, UniProt P08922); type: biochemical; details: Compound I and ATP 10 μM
T17 construct: purchased Upstate USA or Invitrogen (commercial screening service)

BTK = target: T18, BTK (Homo sapiens, UniProt Q06187); type: biochemical; details: Compound I and ATP 10 μM
T18 construct: purchased Upstate USA or Invitrogen (commercial screening service)

Fyn = target: T19, Fyn (Homo sapiens, UniProt P06241); type: biochemical; details: Compound I and ATP 10 μM
T19 construct: purchased Upstate USA or Invitrogen (commercial screening service)

Rse = target: T20, Rse (Homo sapiens, UniProt Q06418); type: biochemical; details: Compound I and ATP 10 μM
T20 construct: purchased Upstate USA or Invitrogen (commercial screening service)

GSK3a = target: T21, GSK3a (Homo sapiens, UniProt P49840); type: biochemical; details: Compound I and ATP 10 μM
T21 construct: purchased Upstate USA or Invitrogen (commercial screening service)

PAK2 = target: T22, PAK2 (Homo sapiens, UniProt Q13177); type: biochemical; details: Compound I and ATP 10 μM
T22 construct: purchased Upstate USA or Invitrogen (commercial screening service)

Rsk3 = target: T23, Rsk3 (Homo sapiens, UniProt Q15349); type: biochemical; details: Compound I and ATP 10 μM
T23 construct: purchased Upstate USA or Invitrogen (commercial screening service)

HIPK2 = target: T24, HIPK2 (Homo sapiens, UniProt Q9H2X6); type: biochemical; details: Compound I and ATP 10 μM
T24 construct: purchased Upstate USA or Invitrogen (commercial screening service)

SAPK2a = target: T25, SAPK2a (Homo sapiens, UniProt Q16539); type: biochemical; details: Compound I and ATP 10 μM
T25 construct: purchased Upstate USA or Invitrogen (commercial screening service)

IGF-1R = target: T26, IGF-1R (Homo sapiens, UniProt P08069); type: biochemical; details: Compound I and ATP 10 μM
T26 construct: purchased Upstate USA or Invitrogen (commercial screening service)

PAR-1Ba = target: T27, PAR-1Ba (Homo sapiens, UniProt Q7KZI7); type: biochemical; details: Compound I and ATP 10 μM
T27 construct: purchased Upstate USA or Invitrogen (commercial screening service)

SAPK3 = target: T28, SAPK3 (Homo sapiens, UniProt P53778); type: biochemical; details: Compound I and ATP 10 μM
T28 construct: purchased Upstate USA or Invitrogen (commercial screening service)

PDK1 = target: T29, PDK1 (Homo sapiens, UniProt O15530); type: biochemical; details: Compound I and ATP 10 μM
T29 construct: purchased Upstate USA or Invitrogen (commercial screening service)

CDK5 = target: T30, CDK5 (Homo sapiens, UniProt Q00535); type: biochemical; details: Compound I and ATP 10 μM
T30 construct: purchased Upstate USA or Invitrogen (commercial screening service)

IRAK4 = target: T31, IRAK4 (Homo sapiens, UniProt Q9NWZ3); type: biochemical; details: Compound I and ATP 10 μM
T31 construct: purchased Upstate USA or Invitrogen (contract screening service)

CDK6 = target: T32, CDK6 (Homo sapiens, UniProt Q00534); type: biochemical; details: Compound I and ATP 10 μM
T32 construct: purchased Upstate USA or Invitrogen (contract screening service)

PKA = PKA (Homo sapiens, UniProt P17612); type: biochemical; details: Compound I and ATP 10 μM
TAK1 = target: T33, TAK1 (Homo sapiens, UniProt O43318); type: biochemical; details: Compound I and ATP 10 μM
T33 construct: purchased Upstate USA or Invitrogen (contract screening service)

JNK1a1 = JNK1a1 (Homo sapiens, UniProt P45983); type: biochemical; details: Compound I and ATP 10 μM
PKBa = target: T34, PKBa (Homo sapiens, UniProt P31749); type: biochemical; details: read-out: Percent Control, PKBa
T34 construct: purchased Upstate USA or Invitrogen (contract screening service)

TrkA = target: T35, TrkA (Homo sapiens, UniProt P04629); type: biochemical; details: Compound I and ATP 10 μM
T35 construct: purchased Upstate USA or Invitrogen (contract screening service)

Lyn = target: T36, Lyn (Mus musculus, UniProt P25911); type: biochemical; details: Compound I and ATP 10 μM
T36 construct: purchased Upstate USA or Invitrogen (commercial screening service)

ZIPK = ZIPK (Homo sapiens, UniProt O43293); type: biochemical; details: Compound I and ATP 10 μM
PKC8 = target: T37, PKC8 (Homo sapiens, UniProt Q05655); type: biochemical; details: Compound I and ATP 10 μM
T37 construct: purchased Upstate USA or Invitrogen (commercial screening service)

EGFR = EGFR (Homo sapiens, UniProt P00533); type: biochemical; details: Compound I and ATP 10 μM
Chain of EGFR (P00533 25-1210): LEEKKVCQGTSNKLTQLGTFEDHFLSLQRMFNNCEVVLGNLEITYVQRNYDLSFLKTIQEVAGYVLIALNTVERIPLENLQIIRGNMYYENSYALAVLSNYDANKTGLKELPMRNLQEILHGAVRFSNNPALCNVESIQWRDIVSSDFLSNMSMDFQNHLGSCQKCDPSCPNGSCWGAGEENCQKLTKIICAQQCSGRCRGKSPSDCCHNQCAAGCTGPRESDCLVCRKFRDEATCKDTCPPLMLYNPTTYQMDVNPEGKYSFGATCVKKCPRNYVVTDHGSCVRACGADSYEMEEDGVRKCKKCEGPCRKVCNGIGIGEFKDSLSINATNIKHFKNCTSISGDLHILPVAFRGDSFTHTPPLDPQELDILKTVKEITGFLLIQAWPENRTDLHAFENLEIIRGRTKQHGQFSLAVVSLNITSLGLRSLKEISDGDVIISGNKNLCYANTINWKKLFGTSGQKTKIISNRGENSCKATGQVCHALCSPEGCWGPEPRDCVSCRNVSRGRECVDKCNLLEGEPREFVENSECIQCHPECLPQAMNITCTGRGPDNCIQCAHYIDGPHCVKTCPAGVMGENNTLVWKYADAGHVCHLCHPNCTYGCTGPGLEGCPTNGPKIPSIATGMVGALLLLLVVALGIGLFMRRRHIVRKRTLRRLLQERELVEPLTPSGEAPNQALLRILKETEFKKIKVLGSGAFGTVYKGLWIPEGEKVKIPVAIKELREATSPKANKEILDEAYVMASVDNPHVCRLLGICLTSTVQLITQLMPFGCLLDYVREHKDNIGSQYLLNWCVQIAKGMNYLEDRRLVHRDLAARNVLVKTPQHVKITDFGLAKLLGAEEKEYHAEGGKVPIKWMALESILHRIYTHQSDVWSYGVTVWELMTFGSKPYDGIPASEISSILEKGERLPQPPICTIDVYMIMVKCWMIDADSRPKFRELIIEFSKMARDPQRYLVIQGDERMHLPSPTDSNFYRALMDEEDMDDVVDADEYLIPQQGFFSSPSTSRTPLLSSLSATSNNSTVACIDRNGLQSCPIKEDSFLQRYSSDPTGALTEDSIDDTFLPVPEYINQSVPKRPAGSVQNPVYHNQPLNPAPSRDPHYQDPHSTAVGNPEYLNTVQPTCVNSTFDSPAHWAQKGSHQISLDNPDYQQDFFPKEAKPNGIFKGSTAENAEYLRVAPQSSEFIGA

T27 sequence (Q7KZI7 1-725 isoform Q7KZI7-4): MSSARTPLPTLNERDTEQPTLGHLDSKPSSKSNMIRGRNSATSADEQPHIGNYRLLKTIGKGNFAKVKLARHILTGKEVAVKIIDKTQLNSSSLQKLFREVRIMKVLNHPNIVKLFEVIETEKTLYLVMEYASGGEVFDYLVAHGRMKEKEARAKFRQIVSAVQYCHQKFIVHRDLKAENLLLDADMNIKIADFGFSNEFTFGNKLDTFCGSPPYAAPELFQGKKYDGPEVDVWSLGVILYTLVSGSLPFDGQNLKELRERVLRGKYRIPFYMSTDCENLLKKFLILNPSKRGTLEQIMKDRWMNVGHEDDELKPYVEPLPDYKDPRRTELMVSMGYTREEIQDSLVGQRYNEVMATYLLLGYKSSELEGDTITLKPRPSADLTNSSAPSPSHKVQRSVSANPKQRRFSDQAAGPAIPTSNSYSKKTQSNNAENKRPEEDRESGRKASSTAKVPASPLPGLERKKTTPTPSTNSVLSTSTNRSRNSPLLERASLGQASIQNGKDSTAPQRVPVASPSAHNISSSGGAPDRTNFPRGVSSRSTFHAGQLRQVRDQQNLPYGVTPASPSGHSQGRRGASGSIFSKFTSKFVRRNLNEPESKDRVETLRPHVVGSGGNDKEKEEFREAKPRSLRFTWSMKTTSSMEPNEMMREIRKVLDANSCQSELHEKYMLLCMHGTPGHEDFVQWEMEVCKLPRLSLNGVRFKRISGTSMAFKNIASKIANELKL
T22 sequence (Q13177 whole entry): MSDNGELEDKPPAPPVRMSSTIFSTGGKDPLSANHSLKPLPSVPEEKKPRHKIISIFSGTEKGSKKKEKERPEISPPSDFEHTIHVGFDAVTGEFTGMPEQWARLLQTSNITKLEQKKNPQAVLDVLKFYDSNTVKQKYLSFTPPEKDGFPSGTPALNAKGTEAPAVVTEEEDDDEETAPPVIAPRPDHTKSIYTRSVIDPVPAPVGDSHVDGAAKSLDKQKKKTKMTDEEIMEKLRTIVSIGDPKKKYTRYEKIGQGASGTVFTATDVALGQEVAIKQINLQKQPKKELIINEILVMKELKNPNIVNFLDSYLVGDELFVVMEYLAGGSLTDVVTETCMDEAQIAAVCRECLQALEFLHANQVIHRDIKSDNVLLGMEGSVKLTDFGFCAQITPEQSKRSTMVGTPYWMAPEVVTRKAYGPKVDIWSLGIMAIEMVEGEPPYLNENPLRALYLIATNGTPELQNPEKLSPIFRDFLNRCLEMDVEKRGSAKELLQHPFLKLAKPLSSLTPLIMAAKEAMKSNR
T14 sequence (O75676 whole entry): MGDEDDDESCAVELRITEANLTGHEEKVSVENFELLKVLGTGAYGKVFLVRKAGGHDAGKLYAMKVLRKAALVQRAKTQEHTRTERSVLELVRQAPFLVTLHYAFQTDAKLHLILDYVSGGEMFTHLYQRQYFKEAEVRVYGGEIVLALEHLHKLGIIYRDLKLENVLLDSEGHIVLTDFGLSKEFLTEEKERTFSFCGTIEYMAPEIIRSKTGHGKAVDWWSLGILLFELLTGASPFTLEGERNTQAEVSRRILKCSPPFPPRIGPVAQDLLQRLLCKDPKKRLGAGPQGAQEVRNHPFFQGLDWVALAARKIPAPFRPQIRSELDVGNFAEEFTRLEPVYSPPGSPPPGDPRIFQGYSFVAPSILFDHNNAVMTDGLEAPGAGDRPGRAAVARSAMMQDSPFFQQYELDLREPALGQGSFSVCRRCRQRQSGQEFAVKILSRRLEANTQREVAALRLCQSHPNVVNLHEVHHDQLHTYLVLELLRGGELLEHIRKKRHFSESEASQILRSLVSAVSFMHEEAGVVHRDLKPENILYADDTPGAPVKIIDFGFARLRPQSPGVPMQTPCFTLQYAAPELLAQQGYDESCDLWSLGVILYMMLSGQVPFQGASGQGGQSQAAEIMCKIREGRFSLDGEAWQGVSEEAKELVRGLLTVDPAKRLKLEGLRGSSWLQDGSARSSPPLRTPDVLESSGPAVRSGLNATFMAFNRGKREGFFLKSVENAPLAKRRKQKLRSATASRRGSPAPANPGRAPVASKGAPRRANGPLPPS
T6 sequence (Q15303 26-1308): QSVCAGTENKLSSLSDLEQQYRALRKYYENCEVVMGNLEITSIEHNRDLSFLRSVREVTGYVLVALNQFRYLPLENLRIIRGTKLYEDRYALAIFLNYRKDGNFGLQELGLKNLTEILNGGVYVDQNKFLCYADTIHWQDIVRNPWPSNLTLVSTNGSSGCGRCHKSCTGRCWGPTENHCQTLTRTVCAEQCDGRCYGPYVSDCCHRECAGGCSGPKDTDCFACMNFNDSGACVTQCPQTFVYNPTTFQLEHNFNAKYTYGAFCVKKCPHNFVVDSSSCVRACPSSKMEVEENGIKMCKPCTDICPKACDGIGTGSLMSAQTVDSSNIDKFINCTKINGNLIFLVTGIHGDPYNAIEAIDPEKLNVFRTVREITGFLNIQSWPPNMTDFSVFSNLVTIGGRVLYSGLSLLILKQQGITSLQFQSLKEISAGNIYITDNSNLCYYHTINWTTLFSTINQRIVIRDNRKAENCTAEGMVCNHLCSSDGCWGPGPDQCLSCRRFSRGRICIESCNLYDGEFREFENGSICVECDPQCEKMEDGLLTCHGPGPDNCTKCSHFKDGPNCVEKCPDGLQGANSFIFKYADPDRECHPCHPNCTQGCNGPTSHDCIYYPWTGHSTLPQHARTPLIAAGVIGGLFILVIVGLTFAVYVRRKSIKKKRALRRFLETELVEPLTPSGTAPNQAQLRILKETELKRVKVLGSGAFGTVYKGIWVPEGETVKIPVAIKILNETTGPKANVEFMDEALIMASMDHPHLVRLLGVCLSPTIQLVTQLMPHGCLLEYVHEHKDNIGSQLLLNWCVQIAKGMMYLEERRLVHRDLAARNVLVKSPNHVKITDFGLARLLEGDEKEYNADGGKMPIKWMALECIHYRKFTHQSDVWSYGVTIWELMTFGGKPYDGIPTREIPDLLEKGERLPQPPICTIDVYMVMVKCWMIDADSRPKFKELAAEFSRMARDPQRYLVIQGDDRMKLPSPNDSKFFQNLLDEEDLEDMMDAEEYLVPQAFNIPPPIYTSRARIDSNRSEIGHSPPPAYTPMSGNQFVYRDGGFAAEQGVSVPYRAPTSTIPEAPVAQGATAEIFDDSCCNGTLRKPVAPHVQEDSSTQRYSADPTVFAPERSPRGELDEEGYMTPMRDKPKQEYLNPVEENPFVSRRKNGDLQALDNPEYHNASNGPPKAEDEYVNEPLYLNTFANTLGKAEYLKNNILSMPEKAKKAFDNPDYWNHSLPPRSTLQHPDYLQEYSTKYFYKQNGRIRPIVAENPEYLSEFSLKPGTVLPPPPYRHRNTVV
T29 sequence (O15530 whole entry): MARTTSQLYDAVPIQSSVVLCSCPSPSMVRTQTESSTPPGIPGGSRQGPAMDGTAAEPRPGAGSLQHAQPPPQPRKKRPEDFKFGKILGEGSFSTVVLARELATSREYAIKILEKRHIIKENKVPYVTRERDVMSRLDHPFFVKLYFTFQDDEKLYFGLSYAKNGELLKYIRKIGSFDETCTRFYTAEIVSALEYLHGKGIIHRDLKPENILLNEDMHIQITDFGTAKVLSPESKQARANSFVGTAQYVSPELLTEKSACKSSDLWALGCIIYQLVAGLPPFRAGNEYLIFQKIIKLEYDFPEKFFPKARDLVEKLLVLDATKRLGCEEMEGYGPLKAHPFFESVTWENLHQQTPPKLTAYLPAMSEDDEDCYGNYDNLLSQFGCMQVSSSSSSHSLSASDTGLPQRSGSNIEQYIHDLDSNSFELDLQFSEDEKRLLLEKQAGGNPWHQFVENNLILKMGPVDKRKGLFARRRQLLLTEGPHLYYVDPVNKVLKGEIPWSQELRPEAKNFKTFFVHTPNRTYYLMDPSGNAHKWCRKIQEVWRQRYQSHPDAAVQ

Nc1nc(N)c2nc(-c3cccc(O)c3)c(-c3cccc(O)c3)nc2n1 [Compound I, 6,7-bis-(3-hydroxyphenyl)-pteridine-2,4-diamine]
Percent Control, Abl (m) (Abl): 66%
Percent Control, MAPKAP-K3 (MAPKAP-K3): 93%
Percent Control, Akt2* (Akt2): 103%
Percent Control, PKCy (PKCy): 75%
Percent Control, Akt3* (Akt3): 98%
Percent Control, MEK2* (MEK2): 94%
Percent Control, ErbB4 (ErbB4): 40%
Percent Control, ALK (ALK): 48%
Percent Control, AMPK (r) (AMPK): 88%
Percent Control, MKK7b (MKK7b): 79%
Percent Control, Pyk2 (Pyk2): 68%
Percent Control, FGFR4 (FGFR4): 94%
Percent Control, MSK1 (MSK1): 92%
Percent Control, Ret (Ret): 57%
Percent Control, Fgr (Fgr): 72%
Percent Control, MSK2 (MSK2): 100%
Percent Control, Flt3 (Flt3): 80%
Percent Control, BRK (BRK): 79%
Percent Control, Ros (Ros): 90%
Percent Control, BTK (BTK): 75%
Percent Control, Fyn (Fyn): 54%
Percent Control, Rse (Rse): 93%
Percent Control, GSK3a (GSK3a): 62%
Percent Control, PAK2 (PAK2): 87%
Percent Control, Rsk3 (Rsk3): 90%
Percent Control, HIPK2 (HIPK2): 87%
Percent Control, SAPK2a (SAPK2a): 55%
Percent Control, IGF-1R (IGF-1R): 104%
Percent Control, PAR-1Ba (PAR-1Ba): 93%
Percent Control, SAPK3 (SAPK3): 98%
Percent Control, PDK1 (PDK1): 90%
Percent Control, CDK5 (CDK5): 82%
Percent Control, IRAK4 (IRAK4): 89%
Percent Control, CDK6 (CDK6): 83%
Percent Control, PKA (PKA): 93%
Percent Control, TAK1 (TAK1): 65%
Percent Control, JNK1a1 (JNK1a1): 80%
remaining activity at 10 µM (PKBa): 62%
Percent Control, TrkA (TrkA): 57%
Percent Control, Lyn (m) (Lyn): 41%
Percent Control, ZIPK (ZIPK): 112%
Percent Control, PKC8 (PKC8): 89%
Percent Control, EGFR (EGFR): 99%
